In EP0342850A1, “Enantiomeric glutaramide diuretic agents” (Pfizer Limited, priority 1988, dated 1989):

Tests used:
[1] = tested on: mice; assay: induction of natriuresis in mice in vivo (procedure of European patent application 0274234); settings: dose (mg/kg) given
Description: (§1) Appropriate reagents and conditions for the various coupling and deprotection steps, described above, together with procedures for determining the biological activity of the products of formula (II) and appropriate pharmaceutical compositions and dosage ranges for their use are described in European patent application no. 0274234.
(§2) The activity of the racemate and separated enantiomers of the cis-4-{1-[2-carboxy-3-(2-methoxyethoxy)propyl]-1-cyclopentanecarboxamido}-1-cyclohexanecarboxylic acid was assessed by measuring their ability to inhibit the neutral endopeptidase E.C.3.4.24.11 in vitro or to induce natriuresis in mice in vivo following the procedure described in European patent application 0274234.

[2] = tested on: neutral endopeptidase E.C.3.4.24.11; assay: inhibition of neutral endopeptidase E.C.3.4.24.11 in vitro (procedure of European patent application 0274234); assay type: biochemical; settings: general statement on the separated enantiomers of the diacid
Description: as §1, §2

| SMILES | Natriuresis in mouse (i.v.) [1] | biological activity [2] |
| --- | --- | --- |
| COCCOC[C@H](CC1(C(=O)N[C@H]2CC[C@@H](C(=O)O)CC2)CCCC1)C(=O)O (racemic) [(±) S, (S)-cis-4-{1-[2-Carboxy-3-(2-methoxyethoxy)propyl]-1-cyclopentanecarboxamido}-1-cyclohexanecarboxylic acid] | active at 1.5 mg/kg | – |
| COCCOCC(CC1(C(=O)N[C@H]2CC[C@@H](C(=O)O)CC2)CCCC1)C(=O)O (relative stereo) [(-) R, cis-4-{1-[2-carboxy-3-(2-methoxyethoxy)propyl]-1-cyclopentanecarboxamido}-1-cyclohexanecarboxylic acid] | inactive at 3 mg/kg | virtually inactive |
| COCCOCC(CC1(C(=O)N[C@H]2CC[C@@H](C(=O)O)CC2)CCCC1)C(=O)O (mixture of isomers) [(±) R,S, cis-4-{1-[2-carboxy-3-(2-methoxyethoxy)propyl]-1-cyclopentanecarboxamido}-1-cyclohexanecarboxylic acid] | active at 3 mg/kg | – |
